The values that follow are results of earlier work, collected in publication PMC3294027 (Methods (San Diego, Calif.), 2011).

Like-named read-outs stand apart in the source and are kept apart here.

For data set [1], the system named is antibody 2D12.5. To be noted: 0.1 M sodium phosphate, pH 7.0, SD in parentheses.
In data set [2] the test system is antibody 2D12.5. As to conditions: for Half-life / koff: TBS pH 7.4, Avg(SD); for Calc kon: calculated as koff/KD.

Usually Kd stands for a measure of binding affinity in units of concentration. Consider “yttrium S-2-(4-aminobenzyl)-1, 4, 7, 10-tetraazacyclododecanetetraacetate [ABD(Y)]”, for which, in data set [1] (30 °C), the KA is given as 3.3(±2.1) ×10^8 M^−1, the dissociation constant (Kd) is 3.1 nM, the ΔG is on record as −11.7(±0.4) kcal/mol and the ΔH is given as −18.2(±0.5) kcal/mol. In addition, the ΔS in data set [1] (30 °C) is −21.5(±2.9) cal/mol-K. In data set [1] (37 °C), the KA is 5.2(±0.9) ×10^8 M^−1, the Kd was 2 nM, the ΔG is −12.4(±0.2) kcal/mol and the ΔH was −20.1(±1.2) kcal/mol. Moreover, the ΔS in data set [1] (37 °C) is on record as −24.9(±4.1) cal/mol-K. Moreover, in data set [2] (30°C), the Half-life was 2.68 ± 0.217 min, the koff is 4.0(±0.3) x10^−3 s−1 and the Calc kon is 1.3e+06 M⁻¹ s⁻¹. For the same substance, in data set [2] (37°C), the Half-life is 1.62 ± 0.15 min, the koff is recorded as 7.0(±0.7) ×10^−3 s−1 and the Calc kon was 3.5e+06 M⁻¹ s⁻¹.
Take “cobalt(II) S-2-(4-aminobenzyl)-1, 4, 7, 10-tetraazacyclododecanetetraacetate [ABD(Co)]”: in data set [1] (30 °C), the KA is 8.2(±0.9) ×10^5 M^−1, the Kd is 1200 nM, the ΔG is reported as −8.2(±0.1) kcal/mol and the ΔH was −12.2(±0.4) kcal/mol. Besides, the ΔS in data set [1] (30 °C) is −13.2(±1.3) cal/mol-K. Further, in data set [1] (37 °C), the KA was 7.1(±0.4) ×10^5 M^−1, the Kd was 1400 nM, the ΔG is −8.3(±0.1) kcal/mol and the ΔH is given as −12.4(±4.8) kcal/mol. In data set [1] (37 °C), the ΔS is −13.3(±4.8) cal/mol-K.
